From PubChem BioAssay AID1996
≈ marks a conversion by molar mass, not a printed value.

conditions: buffer; pH 7.4; 200.0 µM

Q: Which solubility kinetic does the source give for `CN(CC(=O)O)S(=O)(=O)c1ccc2oc3ccccc3c2c1` here?
A: 40.1 µg/mL (≈ 126 µM)

Q: For `CSc1ccc(CN2CCN(CC=C(C)C)C(CCO)C2)cc1` (configuration not stated), which solubility kinetic is on record?
A: > 50.2 µg/mL

Q: With `CCOc1ncccc1C(=O)Nc1cc(S(=O)(=O)N(CC)CC)ccc1N1CCOCC1` as the compound, how does the solubility kinetic read?
A: 6.5 µg/mL (≈ 14.1 µM)

Q: Which solubility kinetic does the source give for `O=Cc1cn(CC(O)CN2CCCCC2)c2ccccc12` (configuration not stated) here?
A: > 43 µg/mL

Q: For `COc1ccc(C(=O)NCC(=O)OCC(=O)N2CC(C)OC(C)C2)cc1OC` (configuration not stated), which solubility kinetic is on record?
A: > 59.2 µg/mL

Q: Which solubility kinetic does the source give for `Cc1ccc2nc(Nc3ccccc3)cc(C)c2c1` here?
A: 3.9 µg/mL (≈ 15.7 µM)

Q: Which solubility kinetic does the source give for `O=C(Nc1ccc(COc2ccccc2)cc1)Nc1cccc(C(=O)O)c1` here?
A: 12.1 µg/mL (≈ 33.4 µM)

Q: Which solubility kinetic does the source give for `CCCCCc1ccc(S(=O)(=O)Nc2cc(C)ccn2)cc1` here?
A: < 0.3 µg/mL

Q: With `O=C(OCc1cncs1)c1ccccc1Cl` as the compound, how does the solubility kinetic read?
A: > 38.1 µg/mL

Q: For `CC(C)NC(=O)CC1(C(=O)NCc2ccc(Cl)cc2)CCCC1`, which solubility kinetic is on record?
A: > 50.5 µg/mL

Q: Which solubility kinetic does the source give for `Cc1cccc(NC(=O)COC(=O)c2ccccn2)c1` here?
A: 34.9 µg/mL (≈ 129 µM)

Q: Which solubility kinetic does the source give for `CC(C)(C)/C(O)=C/c1nc2ccccc2oc1=O` here?
A: 36.8 µg/mL (≈ 150 µM)

Q: For `CC(Sc1nc2ccccc2[nH]1)C(=O)NC1CCCCC1C` (configuration not stated), which solubility kinetic is on record?
A: 14.5 µg/mL (≈ 45.7 µM)

Q: For `NC(=O)C1CCN(C(=O)/C=C/c2cc(Br)ccc2F)CC1`, which solubility kinetic is on record?
A: 47.7 µg/mL (≈ 134 µM)

Q: With `O=C1CN(c2nc3nonc3nc2N2CCCCC2)CCN1` as the compound, how does the solubility kinetic read?
A: 45.2 µg/mL (≈ 149 µM)

Q: With `O=C(O)/C=C/C(=O)NCc1csc2ccccc12` as the compound, how does the solubility kinetic read?
A: 5.2 µg/mL (≈ 19.9 µM)

Q: With `COc1cc(/C=N/Nc2ccccn2)cc(OC)c1O` as the compound, how does the solubility kinetic read?
A: > 41 µg/mL

Q: For `Clc1cnc(Nc2cccnc2)c(Cl)c1`, which solubility kinetic is on record?
A: 33.8 µg/mL (≈ 141 µM)

Q: For `CCOC(=O)Cc1csc(NC(=O)COc2cccc(C)c2)n1`, which solubility kinetic is on record?
A: 8.4 µg/mL (≈ 25.1 µM)

Q: Which solubility kinetic does the source give for `S=c1nc(-c2ccccc2)n(Cc2cccnc2)c2c1CCCC2` here?
A: > 50 µg/mL

Q: For `CC(C)CCN1CCN(Cc2cccn2-c2cccnc2)CC1CCO` (configuration not stated), which solubility kinetic is on record?
A: > 53.5 µg/mL

Q: With `O=C(O)c1cc(S(=O)(=O)NCCCN2CCCC2=O)ccc1Cl` as the compound, how does the solubility kinetic read?
A: > 54.1 µg/mL

Q: With `NC(=S)NC1CCS(=O)(=O)C1` (configuration not stated) as the compound, how does the solubility kinetic read?
A: > 29.1 µg/mL

Q: Which solubility kinetic does the source give for `O=C(CNC(=O)c1ccc(OC(F)F)cc1)NCC1CCCO1` (configuration not stated) here?
A: > 49.2 µg/mL

Q: For `COC(=O)c1c(NC(=O)C2CC2)sc(C(=O)Nc2ccccc2)c1C`, which solubility kinetic is on record?
A: 1.7 µg/mL (≈ 4.74 µM)

Q: With `O=Cc1ccc(OCc2cn3ccccc3n2)cc1` as the compound, how does the solubility kinetic read?
A: > 37.8 µg/mL

Q: With `O=C1NC2(CCCCCC2)C(=O)N1Cc1ccccc1` as the compound, how does the solubility kinetic read?
A: > 40.9 µg/mL

Q: For `CCOC(=O)c1c(C)[nH]c(C(=O)COC(=O)c2cccnc2Cl)c1C`, which solubility kinetic is on record?
A: 4.7 µg/mL (≈ 12.9 µM)

Q: With `Cc1ccc(S(=O)(=O)Nc2ccccc2N2CCOCC2)cc1` as the compound, how does the solubility kinetic read?
A: 0.8 µg/mL (≈ 2.41 µM)

Q: Which solubility kinetic does the source give for `O=C(OCc1ccc([N+](=O)[O-])cc1Cl)c1cnccn1` here?
A: > 44.1 µg/mL

Q: With `Fc1ccccc1NC(=S)NCc1ccccc1` as the compound, how does the solubility kinetic read?
A: 36.1 µg/mL (≈ 139 µM)

Q: Which solubility kinetic does the source give for `CC(C)n1cc(/C(N)=N/O)c(=O)n(Cc2ccccc2)c1=O` here?
A: > 45.3 µg/mL

Q: For `CC1=NCCN1CCNC(=O)Nc1cc(C)cc(C)c1`, which solubility kinetic is on record?
A: 40 µg/mL (≈ 146 µM)

Q: Which solubility kinetic does the source give for `CCN(CC)C(=O)Cn1cc(C(=O)C2CC2)c2ccccc21` here?
A: > 44.8 µg/mL

Q: With `COc1cccc(NC(=S)N(CCN(C)C)C(C)c2cccnc2)c1` (configuration not stated) as the compound, how does the solubility kinetic read?
A: > 53.8 µg/mL

Q: Which solubility kinetic does the source give for `NC(=O)Cn1cc(C(=O)c2ccccc2)c2ccccc21` here?
A: 10.8 µg/mL (≈ 38.8 µM)

Q: For `NC(=O)C1CCCc2c1n(Cc1ccccc1)c1ccccc21` (configuration not stated), which solubility kinetic is on record?
A: 22.3 µg/mL (≈ 73.3 µM)

Q: With `O=[N+]([O-])c1ccc(-c2nc(NCC3CCCO3)c3ccccc3n2)cc1` (configuration not stated) as the compound, how does the solubility kinetic read?
A: 0.6 µg/mL (≈ 1.71 µM)

Q: For `O=S(=O)(NC1CCCCC1)c1cccc2nsnc12`, which solubility kinetic is on record?
A: 31.6 µg/mL (≈ 106 µM)

Q: For `C=CCn1c(C)nc2ccccc2c1=O`, which solubility kinetic is on record?
A: > 30 µg/mL

Q: Which solubility kinetic does the source give for `Cc1cc(C)c(C)c(OCCNCc2ccccc2)c1.O=C(O)C(=O)O` here?
A: > 53.9 µg/mL

Q: For `Cc1nc(NC(=O)c2ccc(Br)o2)ccc1Br`, which solubility kinetic is on record?
A: < 0.4 µg/mL

Q: With `Cc1ccc(NC(=O)c2cccs2)cc1NC(=O)c1ccc(F)cc1` as the compound, how does the solubility kinetic read?
A: 2 µg/mL (≈ 5.64 µM)

Q: With `CC(C)OP(=O)(c1ccc(N(C)C)cc1)C(O)c1cccnc1` (configuration not stated) as the compound, how does the solubility kinetic read?
A: > 50.2 µg/mL

Q: With `CC1=Nc2ccccc2/C1=C/c1c(O)n(C)c(=O)[nH]c1=O` as the compound, how does the solubility kinetic read?
A: > 42.5 µg/mL

Q: For `COc1ccccc1CNC(=O)CSc1nc(C)cs1`, which solubility kinetic is on record?
A: > 46.3 µg/mL

Q: With `CCN(Cc1ccncc1)C(=O)c1ccc(Br)o1` as the compound, how does the solubility kinetic read?
A: > 46.4 µg/mL

Q: For `CCOc1ccc2oc(C(=O)NCC3CCCO3)c(C)c2c1` (configuration not stated), which solubility kinetic is on record?
A: 39.6 µg/mL (≈ 131 µM)

Q: Which solubility kinetic does the source give for `Cc1ccccc1OCC(O)CNC1CCCC1.Cl` (configuration not stated) here?
A: 38.2 µg/mL

Q: For `Cc1ccc(OCCn2cc(C=O)c3ccccc32)cc1`, which solubility kinetic is on record?
A: 5.3 µg/mL (≈ 19 µM)

Q: Which solubility kinetic does the source give for `Fc1ccccc1N1CCN(CC2CCCCC2)CC1` here?
A: 6.2 µg/mL (≈ 22.4 µM)

Q: Which solubility kinetic does the source give for `C#CC(CCN1CCCCC1)(OC)c1ccccc1.Cl` (configuration not stated) here?
A: 27.2 µg/mL

Q: For `O=C(NC(=S)NC1CCC(O)CC1)c1ccco1` (configuration not stated), which solubility kinetic is on record?
A: > 40.2 µg/mL

Q: With `O=c1ccc2ccc(Oc3ccc([N+](=O)[O-])cc3Cl)cc2o1` as the compound, how does the solubility kinetic read?
A: 2.5 µg/mL (≈ 7.87 µM)

Q: Which solubility kinetic does the source give for `CN1C(=O)C(CC(=O)NC2CCCCC2)N(C)C1=O` (configuration not stated) here?
A: > 40.1 µg/mL

Q: With `CCCCOC(=O)N1CCOCCOCCOCC1` as the compound, how does the solubility kinetic read?
A: 40.2 µg/mL (≈ 146 µM)

Q: For `Cc1ccccc1-c1nc2ccccc2c(=O)n1C`, which solubility kinetic is on record?
A: 35.8 µg/mL (≈ 143 µM)

Q: With `COc1ccccc1NC(=O)c1ccc2c(c1)OCO2` as the compound, how does the solubility kinetic read?
A: 39.7 µg/mL (≈ 146 µM)

Q: Which solubility kinetic does the source give for `Cc1ccc(N=C2NC(=O)/C(=C/c3cccn3C)S2)c(C)c1` here?
A: 1.2 µg/mL (≈ 3.85 µM)

Q: With `COC(=O)c1ccncc1C(=O)Nc1ccc(OC)cc1` as the compound, how does the solubility kinetic read?
A: 39.4 µg/mL (≈ 138 µM)

Q: Which solubility kinetic does the source give for `Cc1noc(C)c1S(=O)(=O)N1CCC(C(=O)O)CC1` here?
A: > 43.2 µg/mL

Q: With `CCCNS(=O)(=O)c1cc2c3c(c1)C(C)C(=O)N3CCC2` (configuration not stated) as the compound, how does the solubility kinetic read?
A: 40.3 µg/mL (≈ 131 µM)

Q: With `CCNC(=S)N1CCN(Cc2ccc3c(c2)OCO3)CC1` as the compound, how does the solubility kinetic read?
A: > 46.1 µg/mL

Q: Which solubility kinetic does the source give for `CCCNC(=O)CN1C(=O)NC(CC)(c2ccc(F)cc2)C1=O` (configuration not stated) here?
A: > 48.2 µg/mL

Q: With `O=C(CCNC(=O)c1ccc(Br)cc1)NCc1ccco1` as the compound, how does the solubility kinetic read?
A: > 52.7 µg/mL

Q: Which solubility kinetic does the source give for `CC(=O)c1ccccc1OC(=O)COc1ccc([N+](=O)[O-])cc1` here?
A: > 47.3 µg/mL

Q: With `CCN(c1ccccc1)S(=O)(=O)c1ccc(C(=O)NCC(=O)Nc2ccc(F)c(F)c2F)cc1` as the compound, how does the solubility kinetic read?
A: 2.8 µg/mL (≈ 5.7 µM)

Q: For `CC(C)CCC1(C)NC(=O)N(CC(=O)c2ccc[nH]2)C1=O` (configuration not stated), which solubility kinetic is on record?
A: 36.1 µg/mL (≈ 124 µM)

Q: With `CC(C)[C@@H](N)C(=O)N/N=C/c1ccc2nccnc2c1.Cl` as the compound, how does the solubility kinetic read?
A: > 46.2 µg/mL

Q: With `NS(=O)(=O)c1ccc(CCNS(=O)(=O)c2ccc(Cl)s2)cc1` as the compound, how does the solubility kinetic read?
A: > 57.1 µg/mL

Q: Which solubility kinetic does the source give for `CSc1ncccc1C(=O)OCC(=O)NC(C)C` here?
A: > 40.2 µg/mL

Q: With `O=C(OCc1cc(=O)n2ccsc2n1)c1ccc(O)cc1O` as the compound, how does the solubility kinetic read?
A: 11.1 µg/mL (≈ 34.9 µM)

Q: Which solubility kinetic does the source give for `COc1ccccc1NC1=Nc2cccc3cccc1c23` here?
A: 4.9 µg/mL (≈ 17.9 µM)

Q: Which solubility kinetic does the source give for `CCCN1C2CCCC1CC(NC(=S)Nc1cccc(C)c1)C2` (configuration not stated) here?
A: > 49.7 µg/mL

Q: Which solubility kinetic does the source give for `Fc1ccc(N2CCN(Cc3cnc(Cl)s3)CC2)cc1` here?
A: 45.9 µg/mL (≈ 147 µM)

Q: For `CCc1ccc(NC(=O)Nc2ccc3c(c2)CCC3)cc1`, which solubility kinetic is on record?
A: < 0.3 µg/mL

Q: With `O=C(O)c1ccc(-c2nnc(-c3ccccc3)o2)cc1` as the compound, how does the solubility kinetic read?
A: > 39.9 µg/mL

Q: Which solubility kinetic does the source give for `CS(=O)(=O)Nc1cccc(-c2cn3c(n2)SCC3)c1` here?
A: 40 µg/mL (≈ 135 µM)

Q: For `COc1cc(NC(=O)CSc2nncn2C)cc(OC)c1OC`, which solubility kinetic is on record?
A: > 50.8 µg/mL

Q: Which solubility kinetic does the source give for `CC(=O)Nc1ccc(S(=O)(=O)N[C@@H](C)C(=O)NC2CCCc3ccccc32)cc1` (some centres not stated) here?
A: 30.3 µg/mL (≈ 72.9 µM)

Q: With `Cc1cccc(NC(=O)Nc2ccc(F)cc2)n1` as the compound, how does the solubility kinetic read?
A: 1.6 µg/mL (≈ 6.52 µM)

Q: Which solubility kinetic does the source give for `O=C(O)c1ccc(N=C2NC(=O)C(CO)(CO)S2)cc1` here?
A: > 44.4 µg/mL

Q: With `Cl.NCCSSCCN` as the compound, how does the solubility kinetic read?
A: 31.6 µg/mL

Q: Which solubility kinetic does the source give for `CC(CNC(=O)c1ccccc1[N+](=O)[O-])NC(=O)c1ccccc1[N+](=O)[O-]` (configuration not stated) here?
A: > 55.9 µg/mL

Q: Which solubility kinetic does the source give for `CCCCC(CC)CNC(=O)Cn1c(=O)[nH]c2ccsc2c1=O` (configuration not stated) here?
A: 33.5 µg/mL (≈ 99.3 µM)

Q: For `Cc1cc(C)c(NC(=O)CN(C)CC(=O)Nc2cccc(S(=O)(=O)N(C)c3ccccc3)c2)c(C)c1.O=C(O)C(=O)O`, which solubility kinetic is on record?
A: 14.3 µg/mL

Q: Which solubility kinetic does the source give for `O=C(O)CN(CCc1ccccc1)S(=O)(=O)c1ccccc1` here?
A: > 47.9 µg/mL
